One experiment has as its system CCRF-CEM. Description: Growth inhibition of human CEM cells. The class given is functional.
The nature of experiment [1]: Inhibition of NF-kappaB-mediated transcription in human HepG cells. The class given is cell-based.
Experiment [2] is described as follows: Inhibition of CRE-mediated transcription in human HepG cells. The experiment is classed as cell-based.
The nature of experiment [3]: Inhibition of AP1-mediated transcription in human HepG cells. The experiment is classed as cell-based.
The nature of experiment [4]: Inhibition of GRE-mediated transcription in human HepG cells. The class given is cell-based.
The subject of the next experiment is PANC-1. As to the kind of experiment: Growth inhibition of human PANC1 cells. The experiment is classed as functional.
Experiment [5] in a line: Growth inhibition of human HepG cells. The experiment is classed as functional.
For experiment [6], the system named is HepG. Description: Inhibition of protein synthesis in human HepG cells. The class given is functional, cell-based.
Experiment [7] can be described thus: Ratio of IC50 for AP1-mediated transcription in human HepG cells to GI50 for human HepG2 cells. The experiment is classed as functional.
A short description of experiment [8]: Ratio of IC50 for NF-kappaB-mediated transcription in human HepG cells to GI50 for human HepG2 cells. The experiment is classed as functional.
The subject of experiment [9] is HepG. As to the kind of experiment: Inhibition of DNA synthesis in human HepG cells. The class given is functional, cell-based.
A short description of experiment [10]: Ratio of IC50 for CRE-mediated transcription in human HepG cells to GI50 for human HepG2 cells. The experiment is classed as functional.
Experiment [11] is described as follows: Ratio of IC50 for GRE-mediated transcription in human HepG cells to GI50 for human HepG2 cells. The experiment is classed as functional.
The test system of experiment [12] is HepG. Description: Inhibition of RNA synthesis in human HepG cells. The experiment is classed as functional, cell-based.

SMILES strings stand for the structures. pIC50: −log10 of the molar value. The source made the active and inactive calls. No cut-off for these calls is given here.

For the compound `COc1ccc2c(CN3CCCC[C@H]3CO)cc3cc4c(cc3c2c1)OCO4`, the values for the GI50 (in the experiment on CCRF-CEM; in the experiment on PANC-1; in [5]) were 1600 nM, 2300 nM and 3100 nM, respectively. The negative-log IC50 (pIC50) in experiment [1] was 4.99; in experiment [2] it was 4.73; in [3], 5.00; in experiment [4], 4.68.
As for `COc1ccc2cc(C[C@H]3CCCCN3)c3cc(OC)c(OC)cc3c2c1`, the concentration for 50% growth inhibition (GI50) in the experiment on CCRF-CEM was determined as 567 nM; in the experiment on PANC-1 it was 904 nM; in experiment [5] it was 1720 nM. Also, the Activity entry was “Dose-dependent effect” with HepG [6]; 5.7 in experiment [7]; 1.3 in experiment [8]; “Dose-dependent effect” with HepG [9]; 7 in experiment [10]; 2.6 in experiment [11]. Moreover, the Activity entry in the experiment with HepG [12] is “Dose-dependent effect”. In addition, the pIC50 was 5.66 in experiment [1], 4.92 in [2], 5.01 in [3] and 5.35 in experiment [4].
For the compound `COc1ccc2c3c(c4cc(OC)c(OC)cc4c2c1)CC1CCCCN1C3` (racemic), the GI50 in the experiment on CCRF-CEM was 2 nM; in the experiment with PANC-1 it was 0.5 nM; in [5], 1.5 nM. Besides, the pIC50 in experiment [1] is 8.85; in [2], 7.60; in experiment [3], 7.73; in [4] it was 8.00.
Turning to `COc1ccc2c(CNCCCCCO)cc3cc4c(cc3c2c1)OCO4`, the GI50 was determined as 2000 nM in the experiment on CCRF-CEM, 2200 nM in the experiment on PANC-1 and 2300 nM in experiment [5]. Besides, the pIC50 was 5.10 in experiment [1], 5.07 in [2], 5.06 in [3] and 5.04 in experiment [4].
Regarding `COc1cc2c3c(c4cc(OC)c(OC)cc4c2cc1OC)CN1CCC[C@@H]1C3` [TYLOPHORINE], the GI50 with CCRF-CEM worked out at 67 nM; with PANC-1 it was 29 nM; in experiment [5], 33 nM. For the same compound, the pIC50 in [1] was 6.50; in experiment [2], 5.10; in experiment [3] it was 5.65; in experiment [4] it was 6.27.
For `COc1ccc2c(CN3CCC[C@H]3CO)cc3cc4c(cc3c2c1)OCO4`, the GI50 in the experiment on CCRF-CEM came to 2700 nM; in the experiment on PANC-1 it was 6200 nM; in experiment [5] it was 5400 nM. Further, the result in the experiment on HepG [6] was inactive. For the same compound, the pIC50 in [1] was 4.68; in experiment [2] it was 4.62; in [3] it was less than 4.52; in [4], 4.72. Further, the Activity entry in the experiment with HepG [9] was “Dose-dependent effect”. Besides, the outcome with HepG [12] was Active.
Take `COc1ccc2c3c(c4cc(OC)c(OC)cc4c2c1)C[C@H]1CCCN1C3` [(-)-ANTOFINE]: the concentration for 50% growth inhibition (GI50) in the experiment on CCRF-CEM came out at 5.2 nM; in the experiment with PANC-1 it was 2.2 nM; in experiment [5], 4.9 nM. The result in the experiment with HepG [6] was Active. Also, the Activity in [7] is 28; with HepG [9] it was “Dose-dependent effect”; in [10] it was 34; in [11] it was 4.9. Moreover, the Ratio in [8] is reported as 1.5. Besides, the pIC50 in [1] was 8.14; in [2], 6.78; in experiment [3] it was 6.87; in [4], 7.62. In the experiment on HepG [12], the result was inactive.
In the case of `COc1ccc2cc(C)c3cc(OC)c(OC)cc3c2c1`, the GI50 with CCRF-CEM was greater than 2000 nM; in the experiment with PANC-1 it was greater than 10000 nM; in experiment [5], greater than 10000 nM. Moreover, the pIC50 in [1] is less than 5.00; in experiment [2], less than 4.82; in experiment [3], less than 4.82; in [4], less than 4.82.
For the compound `COc1ccc2c(CN3CCC[C@H]3C(=O)O)cc3cc4c(cc3c2c1)OCO4`, the GI50 amounted to 6200 nM in the experiment on CCRF-CEM, 7400 nM in the experiment with PANC-1 and 8600 nM in experiment [5]. The pIC50 is 4.63 in experiment [1], 4.60 in [2], 4.57 in [3] and less than 4.52 in [4].
`COc1ccc2c(CN3CCCC[C@H]3C(=O)O)cc3cc4c(cc3c2c1)OCO4`: the GI50 came out at 1700 nM in the experiment with CCRF-CEM, 2300 nM in the experiment with PANC-1 and 3000 nM in experiment [5]. For the same compound, the pIC50 in experiment [1] is 5.15; in [2] it was 4.92; in experiment [3], 5.21; in experiment [4], 5.14.
Regarding `COc1cc2c3c(c4cc(OC)c(OC)cc4c2cc1OC)CN1CCC[C@H]1C3` [(S)-TYLOPHORINE], the GI50 with CCRF-CEM came out at 15 nM; in the experiment on PANC-1 it was 12 nM; in experiment [5] it was 11 nM. Besides, the pIC50 in [1] was 7.39; in [2] it was less than 6.52; in [3] it was less than 6.52; in [4] it was 6.64.
As to `COc1ccc2c3c(c4cc5c(cc4c2c1)OCO5)C[C@H]1CCCN1C3`, the GI50 was 323 nM with CCRF-CEM, 156 nM with PANC-1 and 371 nM in experiment [5]. Also, the result in the experiment with HepG [6] was Active. Besides, the negative logarithm of the IC50 (pIC50) in [1] was 5.91; in experiment [2] it was 5.59; in experiment [3] it was 5.47; in experiment [4], 5.61. Besides, in the experiment on HepG [9], the Activity result was “Dose-dependent effect”.
